From US11603380B2 (Centre national de la recherche scientifique, priority 2018, dated 2023)
Read-outs that look alike come from different tables or passages of the source.

How the values were obtained:
[1] = tested on: Vaccinia Virus; test: microbe, parasite or virus in culture; assay type: cell-based; conditions: read-out: EC50 Vaccinia Virus
[2] = tested on: human cytomegalovirus (HCMV) (Davis); test: microbe, parasite or virus in culture; assay type: cell-based; conditions: read-out: EC50 HCMV (Davis)
[3] = tested on: HSV-1, HSV-2, HSV-1 (TK−), VV, FHV; assay type: cell-based
[4] = tested on: HSV-2 (G); test: microbe, parasite or virus in culture; assay type: cell-based, herpes simplex virus 2; conditions: read-out: EC50 HSV-2 (G)
[5] = tested on: varicella-zoster virus (VZV) TK− (07/1); test: microbe, parasite or virus in culture; assay type: cell-based; conditions: Human alphaherpesvirus 3, HEL, read-out: EC50 VZV TK− (07/1)
[6] = tested on: HSV-1 (KOS ACV) TK−; test: microbe, parasite or virus in culture; assay type: cell-based, herpes simplex virus 1
[7] = tested on: HEL cell cultures
[8] = in vitro; conditions: human
[9] = tested on: herpes simplex virus 1 (HSV-1) (KOS); test: microbe, parasite or virus in culture; assay type: cell-based; conditions: read-out: EC50 HSV-1 (KOS)
[10] = tested on: Feline Herpes Virus; test: organism not typed; assay type: cell-based; conditions: read-out: EC50 Feline Herpes Virus
[11] = tested on: varicella-zoster virus (VZV) TK+ (OKA); test: microbe, parasite or virus in culture; assay type: cell-based; conditions: read-out: EC50 VZV TK+ (OKA)
[12] = tested on: human cytomegalovirus (HCMV) (AD-169); test: microbe, parasite or virus in culture; assay type: cell-based; conditions: read-out: EC50 HCMV (AD-169)
[13] = tested on: HEL cells; conditions: read-out: Cytotoxicity CC50; concentration reducing cell growth by 50%; HCMV/VZV table
[14] = Human alphaherpesvirus 1, read-out: EC50 HSV-1 (KOS ACV) TK−
[15] = Human betaherpesvirus 5, AD169, HEL
[16] = read-out: EC50 HSV-1 (KOS ACV) TK−

Compound	EC50 ([1]; Orthopoxvirus vaccinia, HEL)	EC50 ([2]; Human betaherpesvirus 5, HEL)	EC50 ([4]; Human alphaherpesvirus 2, HEL)	EC50 [5]	EC50 [6, 14]	Cytotoxicity MCC ([7]; human)	CC50 at 3 days [8]	EC50 ([9]; Human alphaherpesvirus 1, HEL)	EC50 [10]	EC50 ([11]; Human alphaherpesvirus 3, HEL)	EC50 [12, 15]	other results
CC(=O)OCC(=CCP(=O)(OCOC(=O)C(C)(C)C)OCOC(=O)C(C)(C)C)COc1cc(N)nc(N)n1 (mixture of isomers) [Compound (4), [[(Z/E)-3-(acetoxymethyl)-4-(2,6-diaminopyrimidin-4-yl)oxy-but-2′-enyl]-(2,2-dimethylpropanoyloxymethoxy)phosphoryl]oxymethyl 2,2-dimethylpropanoate]	2.9 µM	4.06 µM	1.1 µM	0.12 µM	0.6 µM	100 µM	2.02 µM	0.6 µM	> 100 µM	0.14 µM	8.56 µM	activity level against HSV-1, HSV-2, HSV-1 (TK−), VV, FHV [3]: micromolar and sub-micromolar activities
CCCCCCCCCCCCCCCCOCCCOP(=O)(CC=C(COC(C)=O)COc1cc(Cl)nc(N)n1)OCOC(=O)OC(C)C (mixture of isomers) [Compound (8), [(E/Z)-2′-[(2-amino-6-chloro-pyrimidin-4-yl)oxymethyl]-4-[3-hexadecoxypropoxy(isopropoxycarbonyloxymethoxy)phosphoryl]but-2′-enyl]acetate]									> 100 µM			EC50 [1]: > 100 µM; EC50 [2]: 13.1 µM; EC50 [4]: > 100 µM; CC50 [13]: 5.01 µM; EC50 [6, 16]: > 100 µM; Cytotoxicity MCC [7]: 100 µM; EC50 [9]: > 100 µM; EC50 [11]: 48.9 µM; EC50 [12]: > 20 µM
Nc1nc2c(ncn2COCCO)c(=O)[nH]1 [Acyclovir, reference compound]	> 100 µM	250 µM									0.4 µM	CC50 [8]: 134 ± 10 µM; CC50 ([8]; Cytotoxicity CC50): > 100 µM
O=c1[nH]c(=O)n([C@H]2C[C@H](O)[C@@H](CO)O2)cc1/C=C/Br [Brivudine, reference compound]	22 µM	250 µM		117 µM		>100 µM				0.01 µM	0.08 µM	CC50 [8]: 339 µM; CC50 ([8]; Cytotoxicity CC50): > 100 µM
CC(C)(C)C(=O)OCOP(=O)(C/C=C/COc1cc(N)nc(N)n1)OCOC(=O)C(C)(C)C [Compound (1), [[(E)-4-(2,6-diaminopyrimidin-4-yl)oxybut-2′-enyl]-(2,2-dimethylpropanoyloxymethoxy)phosphoryl]oxymethyl 2,2-dimethylpropanoate]	32.5 µM	44.7 µM	13.4 µM	2.32 µM	13.4 µM	>100 µM	5.1 µM	13.4 µM	> 100 µM	2.04 µM	44.7 µM	activity level against HSV-1, HSV-2, HSV-1 (TK−), VV, FHV [3]: micromolar and sub-micromolar activities
CCCCCCCCCCCCCCCCOCCCOP(=O)(C/C=C/COc1cc(N)nc(N)n1)OCOC(=O)OC(C)C (stereo not shown) [Compound (2), [[(E)-4-(2,6-diaminopyrimidin-4-yl)oxybut-2′-enyl]-(3-hexadecoxypropoxy)phosphoryl]oxymethyl isopropyl carbonate]									> 100 µM			EC50 [1]: > 100 µM; EC50 [2]: 7.26 µM; EC50 [4]: > 100 µM; CC50 [13]: 14.5 µM; EC50 [6, 16]: > 100 µM; Cytotoxicity MCC [7]: >100 µM; EC50 [9]: > 100 µM; EC50 [11]: 0.17 µM; EC50 [12]: 7.08 µM
CC(C)OC(=O)OCOP(=O)(C/C=C/COc1cc(N)nc(N)n1)OCOC(=O)OC(C)C [Compound (3), [[(E)-4-(2,6-diaminopyrimidin-4-yl)oxybut-2′-enyl]-(isopropoxycarbonyloxymethoxy)phosphoryl]oxymethyl isopropyl carbonate]	> 100 µM	36.6 µM	1.85 µM	1.25 µM	5.75 µM	>100 µM	99 µM	3.75 µM	> 100 µM	0.86 µM	44.7 µM	activity level against HSV-1, HSV-2, HSV-1 (TK−), VV, FHV [3]: micromolar and sub-micromolar activities
CC(=O)OC/C(=C\CP(=O)(OCOC(=O)OC(C)C)OCOC(=O)OC(C)C)COc1cc(N)nc(N)n1 [Compound (6), [(Z)-4-[bis(isopropoxycarbonyloxymethoxy)phosphoryl]-2-[(2,6-diaminopyrimidin-4-yl)oxymethyl]but-2-enyl]acetate]	4.1 ± 2.4 µM	49.7 µM	0.35 ± 0.05 µM	0.22 µM	0.4 µM	>100 µM	15.4 µM	0.6 ± 0.2 µM	> 100 µM	0.089 µM	> 20 µM	
CC(C)(C)C(=O)OCOP(=O)(/C=C/COc1cc(N)nc(N)n1)OCOC(=O)C(C)(C)C [Compound (9), [[(E)-3-(2,6-diaminopyrimidin-4-yl)oxyprop-1-enyl]-(2,2-dimethyl-propanoyloxymethoxy)phosphoryl]oxymethyl 2,2-dimethylpropanoate]	> 100 µM	> 100 µM	> 100 µM	> 100 µM	> 100 µM	>100 µM		> 100 µM	> 100 µM	76.5 µM	> 100 µM	
CC(C)(C)C(=O)OCOP(=O)(CC/C=C/COc1cc(N)nc(N)n1)OCOC(=O)C(C)(C)C [Compound (10), [[(E)-5-(2,6-diaminopyrimidin-4-yl)oxypent-3-enyl]-(2,2-dimethyl-propanoyloxymethoxy)phosphoryl]oxymethyl 2,2-dimethylpropanoate]	> 100 µM	> 100 µM	> 100 µM	24.5 µM	> 100 µM	100 µM		> 100 µM	> 100 µM	34.2 µM	> 100 µM	
C/C(=C\CP(=O)(OCOC(=O)C(C)(C)C)OCOC(=O)C(C)(C)C)COc1cc(N)nc(N)n1 [Compound (11), [[(E)-4-(2,6-diaminopyrimidin-4-yl)oxy-3-methyl-but-2-enyl]-(2,2-dimethyl-propanoyloxymethoxy)phosphoryl]oxymethyl 2,2-dimethylpropanoate]	49.3 µM	> 100 µM	> 100 µM	49.3 µM	51.5 µM	>100 µM		> 100 µM	> 100 µM	51.5 µM	> 100 µM	
CC(C)(C)C(=O)OCOP(=O)(CCCCOc1cc(N)nc(N)n1)OCOC(=O)C(C)(C)C [Compound (12)]	> 100 µM	> 20 µM	39.5 µM	11 µM	42 µM	>100 µM	54.9 µM	39.5 µM	> 100 µM	11.3 µM	44.7 µM	
Nc1nc(O)c2ncn(COC(CO)CO)c2n1 [Ganciclovir, reference compound]	> 100 µM		0.06 µM			>100 µM			1.4 µM			CC50 ([8]; Cytotoxicity CC50): > 100 µM
[(E/Z)-2-[[2-[bis(tert-butoxycarbonyl)amino]-6-methoxy-pyrimidin-4-yl]oxymethyl]-4-[3-hexadecoxypropoxy(isopropoxycarbonyloxymethoxy)phosphoryl]but-2′-enyl]acetate [Compound (7)]									> 100 µM			EC50 [1]: > 100 µM; EC50 [2]: 8.94 µM; EC50 [4]: > 100 µM; CC50 [13]: 1.29 µM; EC50 [6, 16]: > 100 µM; Cytotoxicity MCC [7]: 100 µM; EC50 [9]: > 100 µM; EC50 [11]: > 20 µM; EC50 [12]: > 20 µM
